Assay: refractive index (Na D-line) (dimensionless); xn = mol fraction of the nth substance listed
Conditions: 101 kPa, Liquid, Standard Abbe refractometry

Cc1cc(C)cc(C)c1 [1,3,5-trimethylbenzene] + CCCCOC(C)=O
refractive index
Conditions	293.15 K	298.15 K	303.15 K	308.15 K	313.15 K
x2 = 0.0516	1.49409	1.4916	1.48907	1.48654	1.48399
x2 = 0.1002	1.48903	1.4866	1.48406	1.4816	1.47894
x2 = 0.1506	1.48392	1.48139	1.47885	1.47632	1.47373
x2 = 0.2009	1.4787	1.47618	1.47366	1.47112	1.4686
x2 = 0.2516	1.47339	1.4709	1.46844	1.46589	1.46337
x2 = 0.2995	1.4684	1.46588	1.46345	1.46088	1.45835
x2 = 0.3481	1.46333	1.46081	1.45838	1.4558	1.45332
x2 = 0.3998	1.4579	1.45539	1.45292	1.45039	1.44787
x2 = 0.4499	1.45266	1.45014	1.44772	1.44513	1.44264
x2 = 0.5012	1.44725	1.44474	1.44227	1.43973	1.43728
x2 = 0.5517	1.44194	1.43941	1.43693	1.43441	1.43194
x2 = 0.599	1.43693	1.4344	1.43191	1.42937	1.42693
x2 = 0.6518	1.43134	1.42882	1.42637	1.42379	1.42135
x2 = 0.702	1.42599	1.42348	1.42096	1.41847	1.41604
x2 = 0.7495	1.42089	1.41842	1.41595	1.41342	1.41096
x2 = 0.8007	1.41541	1.41296	1.4105	1.40803	1.40553
x2 = 0.8531	1.40984	1.40738	1.40488	1.40245	1.39998
x2 = 0.8998	1.40482	1.4024	1.39997	1.39751	1.39502
x2 = 0.9494	1.39954	1.3971	1.39467	1.39225	1.38972

CC(C)(C)c1ccccc1 [(1,1-dimethylethyl)benzene] + CCCCOC(C)=O
refractive index
Conditions	293.15 K	298.15 K	303.15 K	308.15 K	313.15 K
x2 = 0.0517	1.48818	1.48564	1.48328	1.48061	1.47812
x2 = 0.1	1.48411	1.48154	1.47905	1.47649	1.47384
x2 = 0.1522	1.4795	1.47702	1.47452	1.47204	1.46953
x2 = 0.1995	1.47531	1.47273	1.47031	1.4677	1.46521
x2 = 0.2511	1.47077	1.46811	1.4657	1.46309	1.46062
x2 = 0.3008	1.46621	1.4636	1.4612	1.45859	1.45614
x2 = 0.3516	1.46145	1.45891	1.45652	1.45387	1.45137
x2 = 0.4061	1.45636	1.45381	1.45141	1.4488	1.44635
x2 = 0.4489	1.45221	1.44966	1.44727	1.4447	1.44226
x2 = 0.4994	1.44728	1.44477	1.44234	1.43978	1.43736
x2 = 0.5499	1.44227	1.43976	1.43736	1.43476	1.43237
x2 = 0.607	1.43649	1.434	1.43155	1.42904	1.42656
x2 = 0.6496	1.43209	1.42958	1.42717	1.42461	1.42212
x2 = 0.7006	1.42687	1.42436	1.42195	1.41938	1.41686
x2 = 0.7489	1.42175	1.41927	1.41683	1.41427	1.41174
x2 = 0.8013	1.41615	1.41367	1.41122	1.40871	1.40625
x2 = 0.8509	1.41079	1.40829	1.40593	1.40331	1.4009
x2 = 0.9005	1.40535	1.40288	1.40048	1.39799	1.39547
x2 = 0.95	1.39982	1.39742	1.3949	1.39263	1.39007

CC(C)Cc1ccccc1 [(2-methylpropyl)benzene] + CCCCOC(C)=O
refractive index
Conditions	293.15 K	298.15 K	303.15 K	308.15 K	313.15 K
x2 = 0.056	1.48206	1.47965	1.47708	1.47442	1.47211
x2 = 0.1042	1.47812	1.47565	1.4731	1.47066	1.46813
x2 = 0.1619	1.47345	1.47097	1.4685	1.46595	1.4635
x2 = 0.201	1.47035	1.46781	1.46524	1.46268	1.46015
x2 = 0.2486	1.46644	1.46384	1.46128	1.45868	1.45618
x2 = 0.3027	1.4618	1.45922	1.45658	1.45405	1.45156
x2 = 0.3619	1.45664	1.45401	1.45147	1.44897	1.44641
x2 = 0.3994	1.4533	1.45072	1.44816	1.44564	1.4431
x2 = 0.4537	1.44838	1.44587	1.44328	1.44077	1.43826
x2 = 0.5056	1.44366	1.4411	1.43853	1.43602	1.43356
x2 = 0.5506	1.43942	1.43693	1.43443	1.43187	1.4294
x2 = 0.5973	1.43506	1.43254	1.43002	1.4275	1.42498
x2 = 0.6485	1.43012	1.42758	1.42505	1.42256	1.42003
x2 = 0.6954	1.42551	1.423	1.42052	1.41799	1.41549
x2 = 0.751	1.41999	1.41754	1.41506	1.41255	1.41004
x2 = 0.7981	1.41525	1.41278	1.4103	1.40782	1.40532
x2 = 0.8469	1.41021	1.40779	1.40535	1.4029	1.40036
x2 = 0.8995	1.40482	1.40235	1.39997	1.39757	1.39493
x2 = 0.9482	1.39966	1.3973	1.39479	1.39237	1.38994

CCCCOC(C)=O [butyl ethanoate] + CCc1ccccc1
refractive index
Conditions	293.15 K	298.15 K	303.15 K	308.15 K	313.15 K
x1 = 0.0544	1.48984	1.48716	1.48442	1.48172	1.47899
x1 = 0.1008	1.48485	1.48219	1.47946	1.47673	1.47401
x1 = 0.1488	1.4796	1.47693	1.47418	1.47152	1.46884
x1 = 0.2024	1.47382	1.47116	1.46843	1.4658	1.4631
x1 = 0.254	1.46832	1.46568	1.46302	1.46037	1.45768
x1 = 0.2929	1.46417	1.46155	1.4589	1.45623	1.45354
x1 = 0.3526	1.45799	1.45536	1.45263	1.45	1.44729
x1 = 0.3989	1.45314	1.45054	1.44782	1.44526	1.44253
x1 = 0.4448	1.44842	1.44582	1.44315	1.44053	1.43785
x1 = 0.5021	1.44254	1.43999	1.43733	1.43472	1.43207
x1 = 0.5505	1.43764	1.43508	1.43242	1.42983	1.4272
x1 = 0.6041	1.43221	1.42967	1.42703	1.42449	1.42191
x1 = 0.6456	1.42806	1.42552	1.42292	1.42036	1.41779
x1 = 0.7003	1.42266	1.42015	1.41759	1.41507	1.41252
x1 = 0.7555	1.41729	1.41481	1.41224	1.40974	1.4072
x1 = 0.8016	1.41282	1.41035	1.40784	1.40537	1.40283
x1 = 0.8511	1.40813	1.40566	1.4032	1.40068	1.39815
x1 = 0.9009	1.40339	1.40097	1.39849	1.39597	1.39349
x1 = 0.9505	1.39875	1.39633	1.39386	1.39139	1.38895

From the NIST ThermoML archive (doi:10.1007/s10765-005-8096-3)
